# Data from patent EP0429372A1, “2-Azolyl nicotinate derivatives as herbicides” (RHONE-POULENC AGROCHIMIE, priority 1989, dated 1991).
# Where two headings read alike, the source gives them in different places.
# Tests used:
# Assay type in all cases: in vivo
# [1] = test system: Ipomea pupurea; test: Example C: selectivity test in major crops, post-emergence application; conditions: 576 h
# Text: (§1) Dans des pots de 7 x 7 x 8 cm remplis de terre agricole légère, on sème un nombre de graines déterminé en fonction de l'espèce végétale et de la grosseur de la graine.
# (§2) On recouvre ensuite les graines d'une couche de terre d'environ 3 mm d'épaisseur et on laisse germer la graine jusqu'à ce qu'elle donne naissance à une plantule au stade convenable. Le stade de traitement pour les graminées est le stade "deuxième feuille en formation". Le stade de traitement pour les dicotylédones, est le stade "cotylédons étalés, première feuille vraie en développement".
# (§3) Les pots sont alors traités par pulvérisation de bouillie en quantité correspondant à une dose volumique d'application de 500 l/ha et contenant la matière active à la concentration désirée.
# (§4) La bouillie a été préparée de la même manière qu'à l'exemple A.
# (§5) Les pots traités sont ensuite placés dans des bacs destinés à recevoir l'eau d'arrosage, en subirrigation, et maintenus pendant 24 jours à température ambiante sous 70 % d'humidité relative.
# (§6) Au bout de 24 jours, on mesure un pourcentage (D) de destruction du nombre de pieds dans le pot traité par rapport au nombre de plantes dans les pots non traités (témoin). On mesure, sur les plantes traitées restantes, le pourcentage de réduction de taille (RT) par rapport aux plantes témoin.
# (§7) Le pourcentage de volume foliaire non détruit par le produit est donc donné par la formule : [formula]
# (§8) Cette valeur A est transformée en notation de 0 à 5 selon l'échelle suivante :
# (§9) Ainsi, un produit est jugé comme sélectif vis à vis de la culture lorsque la valeur A notée est de 0 ou 1.
# (§10) Les résultats obtenus sont présentés dans l'exemple C pour des doses d'application comprises entre 0,5 et 4 kg de matière active par hectare selon les produits.
# [2] = test system: Oryza sativa; test: as above; conditions: crop (Riz), 24 days, score 0-5, 0 or 1 = selective; note: ranges in brackets are in %
# Text: as §1, §2, §3, §4, §5, §6, §7, §8, §9, §10
# [3] = test system: Sesbania exaltata; test: as above; conditions: 576 h
# Text: as §1, §2, §3, §4, §5, §6, §7, §8, §9, §10
# [4] = test system: Sinapis alba; test: as above; conditions: 4000 g/ha, 576 h
# Text: as §1, §2, §3, §4, §5, §6, §7, §8, §9, §10
# [5] = test system: Solanum nigrum; test: as above; conditions: 576 h
# Text: as §1, §2, §3, §4, §5, §6, §7, §8, §9, §10
# [6] = test system: Triticum aestivum; test: as above; conditions: crop (Blé), 24 days, score 0-5, 0 or 1 = selective; note: ranges in brackets are in %
# Text: as §1, §2, §3, §4, §5, §6, §7, §8, §9, §10
# [7] = test system: Xanthium pennsylvanicum; test: as above; conditions: 576 h
# Text: as §1, §2, §3, §4, §5, §6, §7, §8, §9, §10
# [8] = test system: Zea mays; test: as above; conditions: crop (Maïs), 24 days, score 0-5, 0 or 1 = selective; note: ranges in brackets are in %
# Text: as §1, §2, §3, §4, §5, §6, §7, §8, §9, §10
# [9] = test system: Viola tricolor; test: as above; conditions: 576 h
# Text: as §1, §2, §3, §4, §5, §6, §7, §8, §9, §10
# [10] = test system: Chrysanthemum segetum; conditions: post-emergence, 576 h
# Text: as §1, §2, §3, §4, §5, §6, §7, §8, §9, §10
# [11] = test system: Convolvulus arvensis; conditions: post-emergence, 576 h
# Text: as §1, §2, §3, §4, §5, §6, §7, §8, §9, §10
# [12] = test system: Polygonum convolvulus; conditions: 576 h
# Text: as §1, §2, §3, §4, §5, §6, §7, §8, §9, §10
# [13] = test system: Digitaria sanguinalis; test: Example B: post-emergence herbicidal application, pot test; conditions: 4000 g/ha, 576 h
# Text: as §1
# as §2, with “formation ".” for “formation".”
# as §3
# (§11) La bouille a été préparée de la même manière qu'à l'exemple A.
# as §5, §6
# (§12) Le pourcentage du volume foliaire non détruit par le produit est donc donné par la formule : [formula]
# as §8
# (§13) Les résultats obtenus sont présentés après le tableau A pour des doses d'application de 4000 g/ha.
# [14] = test system: Echinochloa crusgalli; test: as above; conditions: 4000 g/ha, 576 h
# Text: as §1
# as §2, with “formation ".” for “formation".”
# as §3, §11, §5, §6, §12, §8, §13
# [15] = test system: Ipomea purpurea; test: as above; conditions: 4000 g/ha, 576 h
# Text: as §1
# as §2, with “formation ".” for “formation".”
# as §3, §11, §5, §6, §12, §8, §13
# [16] = test system: Sinapis alba; test: as above; conditions: 4000 g/ha, 576 h
# Text: as §1
# as §2, with “formation ".” for “formation".”
# as §3, §11, §5, §6, §12, §8, §13
# [17] = test system: Solanum nigrum; test: as above; conditions: 4000 g/ha, 576 h
# Text: as §1
# as §2, with “formation ".” for “formation".”
# as §3, §11, §5, §6, §12, §8, §13
smiles,measurement,setting,value
CCOC(=O)c1cccnc1-c1nc(-c2ccccc2)nn1S(=O)(=O)N(C)C [compound 19],ACTIVITE HERBICIDE DE POST LEVEE I P O,[1]; 4000 g/ha,4 (10 à 30)
same,ACTIVITE HERBICIDE DE POST LEVEE O R Y,[2]; dose 4 kg/ha,0 (90 à 100)
same,ACTIVITE HERBICIDE DE POST LEVEE S E S,[3]; 4000 g/ha,5 (O à 10)
same,ACTIVITE HERBICIDE DE POST LEVEE S I N,[4],5 (O à 10)
same,ACTIVITE HERBICIDE DE POST LEVEE S O L,[5]; 4000 g/ha,5 (O à 10)
same,ACTIVITE HERBICIDE DE POST LEVEE T R Z,[6]; dose 4 kg/ha,0 (90 à 100)
same,ACTIVITE HERBICIDE DE POST LEVEE X A N,[7]; 4000 g/ha,2 (50 à 70)
same,ACTIVITE HERBICIDE DE POST LEVEE Z E A,[8]; dose 4 kg/ha,0 (90 à 100)
CN(C)S(=O)(=O)n1c(-c2ncccc2C(=O)O)nc2c(Cl)cccc21 [compound 79],ACTIVITE HERBICIDE DE POST LEVEE I P O,[1]; 2000 g/ha,4 (10 à 30)
same,ACTIVITE HERBICIDE DE POST LEVEE O R Y,[2]; dose 2 kg/ha,0 (90 à 100)
same,ACTIVITE HERBICIDE DE POST LEVEE S E S,[3]; 2000 g/ha,2 (50 à 70)
same,ACTIVITE HERBICIDE DE POST LEVEE S O L,[5]; 2000 g/ha,3 (30 à 50)
same,ACTIVITE HERBICIDE DE POST LEVEE T R Z,[6]; dose 2 kg/ha,0 (90 à 100)
same,ACTIVITE HERBICIDE DE POST LEVEE V I O,[9]; 2000 g/ha,1 (70 à 90)
same,ACTIVITE HERBICIDE DE POST LEVEE X A N,[7]; 2000 g/ha,1 (70 à 90)
same,ACTIVITE HERBICIDE DE POST LEVEE Z E A,[8]; dose 2 kg/ha,0 (90 à 100)
same,ACTIVITE HERBICIDE DE POST LEVEE C H Y,[10]; 2000 g/ha,4 (10 à 30)
same,ACTIVITE HERBICIDE DE POST LEVEE C O N,[11]; 2000 g/ha,4 (10 à 30)
same,ACTIVITE HERBICIDE DE POST LEVEE P O L,[12]; 2000 g/ha,3 (30 à 50)
CN(C)S(=O)(=O)n1c(-c2ncccc2C(=O)O)nc2cc(Cl)ccc21 [compound 84],ACTIVITE DE POST-LEVEE DIG,[13],0 (90 à 100)
same,ACTIVITE DE POST-LEVEE ECH,[14],0 (90 à 100)
same,ACTIVITE DE POST-LEVEE IPO,[15],3 (30 à 50)
same,ACTIVITE DE POST-LEVEE SIN,[16],5 (O à 10)
same,ACTIVITE DE POST-LEVEE SOL,[17],5 (O à 10)
same,ACTIVITE HERBICIDE DE POST LEVEE I P O,[1]; 1000 g/ha,4 (10 à 30)
same,ACTIVITE HERBICIDE DE POST LEVEE O R Y,[2]; dose 1 kg/ha,1 (70 à 90)
same,ACTIVITE HERBICIDE DE POST LEVEE S E S,[3]; 1000 g/ha,5 (O à 10)
same,ACTIVITE HERBICIDE DE POST LEVEE S O L,[5]; 1000 g/ha,5 (O à 10)
same,ACTIVITE HERBICIDE DE POST LEVEE T R Z,[6]; dose 1 kg/ha,1 (70 à 90)
same,ACTIVITE HERBICIDE DE POST LEVEE V I O,[9]; 1000 g/ha,2 (50 à 70)
same,ACTIVITE HERBICIDE DE POST LEVEE X A N,[7]; 1000 g/ha,3 (30 à 50)
same,ACTIVITE HERBICIDE DE POST LEVEE Z E A,[8]; dose 1 kg/ha,1 (70 à 90)
same,ACTIVITE HERBICIDE DE POST LEVEE C H Y,[10]; 1000 g/ha,5 (O à 10)
same,ACTIVITE HERBICIDE DE POST LEVEE C O N,[11]; 1000 g/ha,5 (O à 10)
same,ACTIVITE HERBICIDE DE POST LEVEE P O L,[12]; 1000 g/ha,4 (10 à 30)
